# According to PubChem BioAssay AID860 (Vanderbilt High Throughput Screening Facility, 2007):
# Target: Muscarinic acetylcholine receptor M4 (Rattus norvegicus) (UniProt P08485)
# Experiment: rat M4 receptor inhibition concentration-response – cell-based, antagonist mode, counter-screen for M1 allosteric modulator project, dose response (AID 860)
# Conditions: rat M4-expressing cells, calcium fluorescence, antagonist mode at EC80 agonist
# Chain of Muscarinic acetylcholine receptor M4 (Rattus norvegicus) (P08485 whole entry, looked up): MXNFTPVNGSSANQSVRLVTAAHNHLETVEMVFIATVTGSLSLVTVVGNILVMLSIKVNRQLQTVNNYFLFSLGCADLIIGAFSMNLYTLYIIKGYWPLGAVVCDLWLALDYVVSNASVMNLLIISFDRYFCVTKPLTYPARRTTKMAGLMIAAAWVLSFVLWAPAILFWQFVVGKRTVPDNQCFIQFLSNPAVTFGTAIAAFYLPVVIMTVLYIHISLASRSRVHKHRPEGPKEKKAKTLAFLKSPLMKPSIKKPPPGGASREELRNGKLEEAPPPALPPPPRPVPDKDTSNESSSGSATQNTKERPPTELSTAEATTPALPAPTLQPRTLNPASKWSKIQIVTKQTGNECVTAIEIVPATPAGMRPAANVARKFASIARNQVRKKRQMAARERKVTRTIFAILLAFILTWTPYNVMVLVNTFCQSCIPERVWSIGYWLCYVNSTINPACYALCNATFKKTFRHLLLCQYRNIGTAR
row,SMILES,IC50 [nM]
1,CCC(C)N(CCNC(=O)CC1Oc2ccccc2NC1=O)C1CCCCC1 (centres undefined),847
2,CCCC(CCC)C(=O)OC1C[C@H]2CC[C@@H](C1)[N+]2(C)C (some centres undefined),29.4
3,CNCCCC1c2ccccc2C=Cc2ccccc21,925
4,O=C(CC(c1ccccc1O)N1CCCCC1)N1CCCCC1 (centres undefined),752
5,O=C(OCCN1CCCC1)C1(c2ccccc2)CCCC1,325
6,COc1ccc(N2C(=O)CSC23C(=O)N2CCCc4cccc3c42)cc1 (centres undefined),451
7,O=C(CN1CCCC(O)C1)N1c2ccccc2Sc2ccc(C(F)(F)F)cc21 (centres undefined),979
8,CN(C)CCCOC(=O)C1c2ccccc2Oc2ccccc21,215
9,CN(C)CCOC(=O)C(c1ccccc1)C1(O)CCCC1 (centres undefined),11.7
10,Cc1ccc2c(c1)NC(=O)C(CC(=O)Nc1ccc(CN3CCC(C)CC3)cc1)O2 (centres undefined),71.6
11,CCN1C(=O)/C(=C\N2CCCCCC2)SC1=S,759
12,Cc1nc2c(o1)CCc1ccccc1C2N1CCN(C)CC1 (centres undefined),38.3
13,OC(CCN1CCCC1)(c1ccccc1)C1CCCCC1 (centres undefined),34.3
14,CCC(C)N(CCNC(=O)CC1Oc2ccc(C)cc2NC1=O)C1CCCCC1 (centres undefined),577
15,CN1CCC(=C2c3ccccc3C=Cc3ccccc32)CC1,136
16,O=C(NC1CCN(Cc2ccccc2)CC1)C1COc2ccccc2O1 (centres undefined),411
17,CCN(CC)CCOC(=O)C(c1ccccc1)c1ccccc1,747
18,Cc1ccc(C(=O)C2CCN(CC(=O)NC3CCCCC3)CC2)cc1,72.7
19,CC1CCN(Cc2ccc(NC(=O)CC3Oc4ccccc4NC3=O)cc2)CC1 (centres undefined),33.1
20,CCN(CC)c1ccc(C2C(C(=O)OCCOC(C)C)=C(C)NC3=C2C(=O)CCC3)cc1 (centres undefined),822
21,CN(C)CCC=C1c2ccccc2CCc2ccccc21,1150
22,CCN(CCCCOC(=O)c1ccc(OC)c(OC)c1)C(C)Cc1ccc(OC)cc1 (centres undefined),742
23,COC(=O)c1ccc(CSc2nc(C)nc3c2c(=O)n(C)c(=O)n3C)o1,1300
24,OC(CCN1CCCCC1)(c1ccccc1)c1ccccc1,111
